Assay results taken from patent US12325708B2, “Adenosine 2 receptor antagonists” (Nektar Therapeutics, priority 2019, dated 2025).

Key:
[1] = target: T1, A2A receptor (Homo sapiens, UniProt P29274); experiment: Radioligand receptor binding assay, A2A receptor; conditions: cell membranes overexpressing A2A receptor, read-out: Potency Ki A2A
T1 construct: purchased
Procedure, shortened: (§1)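 Membranes from cell lines overexpressing human A2A, A1 or A3 receptors were incubated 60 min at room temperature with the receptor-appropriate [3H] tracer. After filtration and washing in 50 mM Tris HCl pH 7.5, bound label was counted by scintillation. IC50 came from nonlinear regression and Ki from the Cheng-Prusoff equation.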

[2] = target: T2, A3 receptor (Homo sapiens, UniProt P0DMS8); experiment: Radioligand receptor binding assay, A3 receptor; conditions: cell membranes overexpressing A3 receptor, read-out: Potency Ki A3
T2 construct: purchased
T2 sequence (P0DMS8 1-318): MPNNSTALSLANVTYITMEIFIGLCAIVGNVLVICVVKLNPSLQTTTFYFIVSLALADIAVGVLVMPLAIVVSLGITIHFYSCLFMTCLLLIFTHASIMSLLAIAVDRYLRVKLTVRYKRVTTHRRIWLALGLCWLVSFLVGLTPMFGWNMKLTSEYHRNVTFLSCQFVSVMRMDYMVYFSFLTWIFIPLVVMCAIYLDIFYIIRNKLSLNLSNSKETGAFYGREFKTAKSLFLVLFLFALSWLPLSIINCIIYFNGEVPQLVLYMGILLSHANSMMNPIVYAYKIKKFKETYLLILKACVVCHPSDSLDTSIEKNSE
Description: Using conventional receptor binding assay techniques, Compounds 1-24 were assayed to determine binding activity at the A2A, A1, and A3 receptors with the results shown in Table 7.
Receptor binding affinity of Compounds 1-24 was measured using radioligand binding assays using commercially obtained cell membranes prepared from cell lines overexpressing the A2A, A1, or A3 receptors. Briefly, cell membrane preparations from cells expressing the specific receptor were mixed with the appropriate [^3H]-labeled tracer for the specific receptor and the test compound or a known inhibitor of receptor-ligand binding. Following 60 min incubation at room temperature to allow receptor-ligand complex formation, the complexes were collected by filtration, washed with 50 mM Tris HCl (pH 7.5) to remove radioligand that was not receptor-bound, and the remaining radioactivity determined by liquid scintillation counting. Specific radioligand binding was calculated for each test compound concentration and IC50 values were determined by non-linear, regression analysis. Inhibition constants (Ki) were calculated using the equation of Cheng and Prusoff using the observed IC50 of the tested compound, the concentration of radioligand employed in the assay and the experimentally determined values for the Kd of the ligand.

[3] = target: T3, A1 receptor (Homo sapiens, UniProt P30542); experiment: Radioligand receptor binding assay, A1 receptor; conditions: cell membranes overexpressing A1 receptor, read-out: Potency Ki A1
T3 construct: purchased
T3 sequence (P30542 1-326): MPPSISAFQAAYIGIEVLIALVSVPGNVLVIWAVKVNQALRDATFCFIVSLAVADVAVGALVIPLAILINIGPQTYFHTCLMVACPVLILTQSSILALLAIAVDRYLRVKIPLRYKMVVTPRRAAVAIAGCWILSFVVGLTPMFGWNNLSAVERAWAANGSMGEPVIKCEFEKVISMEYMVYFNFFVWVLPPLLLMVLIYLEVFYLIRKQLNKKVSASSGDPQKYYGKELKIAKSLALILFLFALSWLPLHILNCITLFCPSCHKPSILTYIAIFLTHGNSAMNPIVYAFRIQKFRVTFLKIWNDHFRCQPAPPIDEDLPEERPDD
Procedure, shortened: as §1

[4] = Brain-to-plasma ratio (B/P) after administration; type: in vivo, Sprague-Dawley rats; conditions: Sprague-Dawley, rat, oral, 2.5 mg/kg; Table 6; brain-to-plasma ratio at 1 h
Procedure, shortened: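 Plasma pharmacokinetic parameters determined after oral (PO) administration; brain-to-plasma concentration ratio (B/P) used as the brain penetration measure.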

[5] = Plasma pharmacokinetic parameters following intravenous (IV) or oral (PO) administration in rats; type: in vivo, Sprague-Dawley rats; conditions: male, Sprague-Dawley, rat, plasma, Table 6
Procedure, shortened: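 Fasted male Sprague-Dawley rats (230-250 g, n=2/group), dosed 0.5 mg/kg IV (jugular) or 2.5 mg/kg PO gavage in water. Plasma sampled 2–1440 min, analyzed by LC-MS/MS; non-compartmental analysis with nominal doses/times gave AUC, Cmax, Tmax, CL, Vss, MRTlast, F.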

T1 sequence (P29274 whole entry): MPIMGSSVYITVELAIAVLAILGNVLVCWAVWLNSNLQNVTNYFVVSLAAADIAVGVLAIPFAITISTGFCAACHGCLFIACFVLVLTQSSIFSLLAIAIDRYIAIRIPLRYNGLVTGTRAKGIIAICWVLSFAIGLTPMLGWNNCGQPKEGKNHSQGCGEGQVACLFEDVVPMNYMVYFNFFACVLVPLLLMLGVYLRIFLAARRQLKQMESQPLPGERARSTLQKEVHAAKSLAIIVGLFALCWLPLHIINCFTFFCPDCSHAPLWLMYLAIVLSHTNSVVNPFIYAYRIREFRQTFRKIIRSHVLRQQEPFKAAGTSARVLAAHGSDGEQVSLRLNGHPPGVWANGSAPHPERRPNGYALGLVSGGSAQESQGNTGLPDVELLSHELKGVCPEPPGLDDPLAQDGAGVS

Ki [1]: 0.004 µM | Ki [2]: > 10 µM | Ki [3]: > 100 µM | Kp at 1 h [4]: 0.06 | AUC ([5]; 2.5 mg/kg, oral (PO) administration essentially as described in Example 28): 1200 ng·h/mL | clearance ([5]; intravenous, 0.5 mg/kg, essentially as described in Example 28): 20 mL/min/kg | bioavailability ([5]; po, 2.5 mg/kg, oral (PO) administration essentially as described in Example 28): 58%
SMILES: [2H]C([2H])([2H])OC([2H])([2H])C([2H])([2H])Oc1ccc(N2CCN(C([2H])([2H])C([2H])([2H])N(c3cc4nc(-c5ncco5)nn4c(N)n3)C([2H])([2H])[2H])CC2)cc1 [Compound 16, N^7-(^2H3)methyl-N^7-[2-{4-[4-({2-[(^2H3)methyloxy](^2H4)ethyl}oxy)phenyl]piperazin-1-yl}(^2H4)ethyl]-2-(1,3-oxazol-2-yl)[1,2,4]triazolo[1,5-c]pyrimidine-5,7-diamine]
